The source of these data is publication PMC9952520, “Anti-Biofilm Effects of Rationally Designed Peptides against Planktonic Cells and Pre-Formed Biofilm of Pseudomonas aeruginosa” (Antibiotics, 2023).

Ends that are not written are not given here.

The subject of test [1] is Drug-Sensitive P. aeruginosa (ATCC 27853). The test is described as follows: microbe, parasite or virus in culture. It counts as cell-based, Pseudomonas aeruginosa. The following applies: microdilution, 10 mM sodium phosphate pH 7.2 + 20% MH broth, 24 h at 37 °C, turbidity OD600, triplicate. As to the method:
(§1) Pseudomonas aeruginosa ATCC 27853 (drug-sensitive strain) was obtained from the American Type Culture Collection and drug-resistant P. aeruginosa (DRPa)-3904, 4830, 4891, 4007, and 5018 were isolated from patients with otitis media in a hospital. DRPa strains were obtained from GC Lab (Yongin-Si, Gyeonggi-do, Korea) for identification and antibiotic susceptibility testing. All strains were grown in a Mueller–Hinton (MH) broth containing 0.5% NaCl under an aerobic condition at 37 °C.
(§2) Pregrown bacteria were suspended in 10 mM sodium phosphate (SP, pH 7.2) supplemented with 20% MH broth. Evaluation of antibacterial effects in variable ionic strengths was performed with the following buffers: 10 mM HEPES, 10 mM NaCl, pH 7.4 + 10% MH (buffer I), 10 mM HEPES, 150 mM NaCl, pH 7.4 + 10% MH (buffer II), 10 mM HEPES, 5 mM MgCl2, pH 7.4 + 10% MH (buffer III), and 10 mM HEPES, 150 mM NaCl, 5 mM MgCl2, pH 7.4 + 10% MH (buffer IV). Fifty µL of the cell suspension (1 × 10^6 colony forming unit (CFU)/mL) was added to fifty µL of two-fold serially diluted peptide solutions and antibiotics (0.125–256 µM), followed by incubation for 24 h at 37 °C. The positive growth control was bacterial suspension without peptides and antibiotics and the negative control was only medium. MICs were evaluated by measuring the turbidity of cell solutions at OD600 and were defined as the lowest concentration of peptide or antibiotics that inhibited visible bacterial growth. The assays were performed in triplicate.

A further test relates to planktonic DRPa 4007. The test is described as follows: Growth inhibition of planktonic cells in BHI. It counts as cell-based, Pseudomonas aeruginosa. To be noted: BHI broth, 24 h at 37 °C, OD600. As to the method: (§3) To investigate the growth inhibition of peptides and antibiotics against planktonic P. aeruginosa cells, a microdilution assay was applied. […] After 24 h incubation at 37 °C with agitation, the growth inhibition was calculated by the absorbance measurement of bacterial turbidity at 600 nm using a Microplate Reader (SpectraMax M5, Molecular Devices, Sunnyvale, CA, USA). The assay was performed in triplicate. The percentage of […] was calculated as follows:Growth inhibition (%) = 100 − ((OD600 in sample treatment − OD600 in untreated bacteria)/(OD600 in untreated sample − OD600 in untreated bacteria) × 100) Sample treatment: adding peptides or antibiotics in bacterial suspensions; untreated bacteria: culture medium without bacteria and samples; untreated sample: bacterial suspension without samples.

The subject of test [2] is planktonic P. aeruginosa ATCC 27853. The test can be described thus: Growth inhibition of planktonic cells in BHI. The class given is cell-based, Pseudomonas aeruginosa. To be noted: BHI broth, 24 h at 37 °C, OD600. As to the method:
as §3

In test [3] the test system is Drug-Resistant P. aeruginosa (DRPa) 3904. The test is described as follows: microbe, parasite or virus in culture. The class given is cell-based, Pseudomonas aeruginosa. The following applies: microdilution, 10 mM sodium phosphate pH 7.2 + 20% MH broth, 24 h at 37 °C, OD600, triplicate. As to the method:
as §1, §2
For orientation: Dilution methods test growth across graded concentrations, often in twofold steps.

The test system of test [4] is Drug-Resistant P. aeruginosa (DRPa) 4007. The test can be described thus: microbe, parasite or virus in culture. The class given is cell-based, Pseudomonas aeruginosa. The following applies: microdilution, 10 mM sodium phosphate pH 7.2 + 20% MH broth, 24 h at 37 °C, OD600, triplicate. As to the method:
as §1, §2

Test [5] relates to Drug-Resistant P. aeruginosa (DRPa) 4830. The test can be described thus: microbe, parasite or virus in culture. The class given is cell-based, Pseudomonas aeruginosa. To be noted: microdilution, 10 mM sodium phosphate pH 7.2 + 20% MH broth, 24 h at 37 °C, OD600, triplicate. As to the method:
as §1, §2

Test [6] concerns Drug-Resistant P. aeruginosa (DRPa) 4891. The test is described as follows: microbe, parasite or virus in culture. The class given is cell-based, Pseudomonas aeruginosa. The following applies: microdilution, 10 mM sodium phosphate pH 7.2 + 20% MH broth, 24 h at 37 °C, OD600, triplicate. As to the method:
as §1, §2

Test [7] concerns Drug-Resistant P. aeruginosa (DRPa) 5018. The test is described as follows: microbe, parasite or virus in culture. The class given is cell-based, Pseudomonas aeruginosa. The following applies: microdilution, 10 mM sodium phosphate pH 7.2 + 20% MH broth, 24 h at 37 °C, OD600, triplicate. As to the method: as §1, §2
Test [8] has as its system P. aeruginosa ATCC 27853 biofilm. The test is described as follows: Inhibition of biofilm formation, crystal violet staining. It counts as cell-based, Pseudomonas aeruginosa. To be noted: BHI + 2% sucrose, 24 h at 37 °C, crystal violet OD570. As to the method:
(§4) Sucrose was added to enhance bacterial biofilm formation. Unattached bacteria were removed by washing with SP buffer and the remaining biofilm was fixed with methanol for 15 min. After air-drying for 30 min at room temperature, the plate was stained with 0.1% crystal violet (CV) for 5 min, followed by carefully washing with water and adding 95% ethanol to each well. The absorbance of the plate at 570 nm was measured using a Microplate Reader. The experiment was performed in triplicate and the percentage of biofilm inhibition was calculated as follows:Biofilm inhibition (%) = 100 − ((OD570 in sample treatment − OD570 in untreated bacteria)/(OD570 in untreated sample − OD570 in untreated bacteria) × 100) Sample treatment: adding peptides or antibiotics in bacterial suspensions; untreated bacteria: culture medium without bacteria and samples; untreated sample: bacterial suspension without samples.

The next test has as its system DRPa 4007 biofilm. The test is described as above. It counts as cell-based. To be noted: Pseudomonas aeruginosa, BHI + 2% sucrose, 24 h at 37 °C, crystal violet OD570, triplicate. As to the method: as §4
Test [9] deals with P. aeruginosa DRPa 4007 biofilm. The test can be described thus: SEM analysis of biofilm on plastic coverslips. The class given is cell-based, Pseudomonas aeruginosa. To be noted: peptides 64 µM, ciprofloxacin 256 µM, 24 h on 48 h biofilm. As to the method: Figure 6 Image analysis of P. aeruginosa DRPa 4007 using scanning electron microscopy (SEM).
DRPa 4007 biofilms were formed on the plastic coverslips (12 mm dimension, SPL life science, Pocheon-si, Korea) for 48 h in BHI broth containing 2% (w/v) sucrose (1 × 10^8 CFU/mL) in a 24-well plate. […] The coverslips were rinsed using SP buffer and prefixed in 50 mM HEPES buffer (pH 8.0) containing 5% (v/v) glutaraldehyde for 2 h. After washing with SP buffer, they were dehydrated using the OTTIX shaper (Diapath S.p.A, Bergamo, Italy) and chemical-dried using hexamethyldisilazane. The coverslips coated with gold were observed under a field emission scanning electron microscopy (JSM-7100F, JEOL Ltd., Tokyo, Japan).

The subject of test [10] is Biofilm EPS of P. aeruginosa DRPa 4007. The test is described as follows: Reduction of biofilm EPS components, fluorescent dyes and fluorescence microscopy. The class given is cell-based, Pseudomonas aeruginosa. The following applies: 64 µM, 24 h incubation; FITC-ConA, Nile red, DAPI, SYPRO red. As to the method:
Figure 4 Eliminative action of peptides in biofilm extracellular polymeric substances (EPS). Biofilm EPS of P. aeruginosa DRPa 4007 in the absence or presence of peptides (64 µM) was stained by FITC-ConA for carbohydrates, Nile red for lipids, DAPI for nucleic acids, and SYPRO red for proteins and observed under fluorescence microscopy.
To investigate the eliminating ability of peptide, EPS components were analyzed using fluorescence microplate and microscopic analyses. After following the processes described in Section 3.7, the biofilm was washed with SP buffer and stained using four fluorescent dyes (DAPI for nucleic acids, Nile red for lipids, FITC-ConA for carbohydrates, and SYPRO red for proteins).

[11] abbreviates: Pseudomonas aeruginosa, ATCC27853.

Consider `CC(C)(O/N=C(\C(=O)N[C@@H]1C(=O)N2C(C(=O)[O-])=C(C[n+]3ccccc3)CS[C@H]12)c1csc(N)n1)C(=O)O` [Ceftazidime], for which the MIC in [1] (setting [11]) amounted to 1 µM. The “antibacterial activity against planktonic cells” value in the test on planktonic DRPa 4007 is “remarkably inhibited”. Also, the “growth inhibition of planktonic cells” value in test [2] is recorded as “at very low concentrations”.
One may read the inhibition as the drop in the measured response relative to a control, in per cent. In the case of `O=C(O)c1cn(C2CC2)c2cc(N3CCNCC3)c(F)cc2c1=O` [Ciprofloxacin], the MIC in [3] (Pseudomonas aeruginosa) is above 256 µM; in [4] (Pseudomonas aeruginosa), above 256 µM; in test [5] (Pseudomonas aeruginosa), 64 µM; in test [6] (Pseudomonas aeruginosa), above 256 µM; in [7] (Pseudomonas aeruginosa), above 256 µM; in test [1] (setting [11]), 1 µM. The “antibacterial activity against planktonic cells” value in the test on planktonic DRPa 4007 is listed as “remarkably inhibited”. Besides, the “growth inhibition of planktonic cells” value in test [2] is reported as “at very low concentrations”. Besides, the “inhibition of biofilm formation” value in [8] was “dose-dependent manner”. In the test on DRPa 4007 biofilm, the inhibition at 64 µM turned out to be 2.3%. The “biofilm and bacteria on coverslip under SEM” value in test [9] is reported as “massive volume”.
As to `CC[C@H](C)[C@H](NC(=O)CN)C(=O)NCC(=O)N[C@@H](C)C(=O)N[C@H](C(=O)N[C@@H](CC(C)C)C(=O)N[C@@H](CCCCN)C(=O)N[C@H](C(=O)N[C@@H](CC(C)C)C(=O)N[C@H](C(=O)N[C@H](C(=O)NCC(=O)N[C@@H](CC(C)C)C(=O)N1CCC[C@H]1C(=O)N[C@@H](C)C(=O)N[C@@H](CC(C)C)C(=O)N[C@H](C(=O)N[C@@H](CO)C(=O)N[C@@H](Cc1c[nH]c2ccccc12)C(=O)N[C@H](C(=O)N[C@@H](CCCCN)C(=O)N[C@@H](CCCNC(=N)N)C(=O)N[C@@H](CCCCN)C(=O)N[C@@H](CCCNC(=N)N)C(=O)N[C@@H](CCC(N)=O)C(=O)N[C@@H](CCC(N)=O)C(N)=O)[C@@H](C)CC)[C@@H](C)CC)[C@@H](C)O)[C@@H](C)O)C(C)C)C(C)C` [Melittin], the MIC in [3] worked out at 2 µM; in test [4], 4 µM; in test [5], 4 µM; in test [6] it was 4 µM; in test [7], 4 µM; in test [1], 2 µM. Moreover, the “removal of EPS components (carbohydrates, lipids, DNA, proteins)” value in test [10] is listed as “did not remove carbohydrates”.
Turning to `NC[C@H]1O[C@H](O[C@H]2[C@H](O)[C@@H](O[C@H]3O[C@H](CO)[C@@H](O)[C@H](N)[C@H]3O)[C@H](N)C[C@@H]2N)[C@H](N)C[C@@H]1O` [Tobramycin], the MIC in test [1] (setting [11]) came out at 0.25 µM.
For the molecule `Cc1onc(-c2ccccc2)c1C(=O)N[C@@H]1C(=O)N2[C@@H]1SC(C)(C)[C@@H]2C(=O)O` [oxacillin], the “inhibition of biofilm formation” value in test [8] is listed as “dose-dependent manner”. The inhibition at 64 µM in the test on DRPa 4007 biofilm worked out at 3.4%.
Take KKIIKKIIKKIWKW-NH2 [KIW-14]: the MIC in test [4] and in test [5] was 2 µM in each case.
With KKIIKKIWKW-NH2 [KIW-10], the MIC in [4] and in [5] was 16 µM in each case.
Consider KKIWKKWIKI-NH2 [KWI-10], for which the MIC in [4] and in test [5] was 8 µM in each case.
Consider KKIWKKWIKKIIKI-NH2 [KWI-14], for which the figures for the MIC in test [4] and in test [5] were 1 µM and 2 µM, respectively.
Turning to RRIIRRIWRW-NH2 [RIW-10], the MIC in test [4] was 8 µM; in test [5], 16 µM.
The corresponding values for RRIWRRWIRI-NH2 [RWI-10] are 8 µM and 4 µM.
For WIKKIWKKIIKEIK-NH2 [WIKE-14] the same measures were 8 µM and 8 µM.
In the case of WIKKIWKKIIKKIK-NH2 [WIK-14], the figures for the MIC in test [4] and in test [5] were 1 µM and 2 µM, respectively.
For WIKKIWKKIK-NH2 [WIK-10] the same measures were 8 µM and 8 µM.
Turning to WIRRIWRRIR-NH2 [WIR-10], the MIC in test [4] amounted to 2 µM; in test [5] it was 4 µM.
